From patent US8415469B2, “Compounds and methods for kinase modulation, and indications therefor” (Plexxikon Inc., priority 2005, dated 2013)
pIC50: −log10 of the molar value.

Columns and labels:
Type in all cases: biochemical
[1] = molecular target: T1, Jak3 (Homo sapiens, UniProt P52333); test: AlphaScreen kinase assay, Jak3; details: read-out: IC50, activity toward kinase Jak3
T1 sequence (P52333 1-1124): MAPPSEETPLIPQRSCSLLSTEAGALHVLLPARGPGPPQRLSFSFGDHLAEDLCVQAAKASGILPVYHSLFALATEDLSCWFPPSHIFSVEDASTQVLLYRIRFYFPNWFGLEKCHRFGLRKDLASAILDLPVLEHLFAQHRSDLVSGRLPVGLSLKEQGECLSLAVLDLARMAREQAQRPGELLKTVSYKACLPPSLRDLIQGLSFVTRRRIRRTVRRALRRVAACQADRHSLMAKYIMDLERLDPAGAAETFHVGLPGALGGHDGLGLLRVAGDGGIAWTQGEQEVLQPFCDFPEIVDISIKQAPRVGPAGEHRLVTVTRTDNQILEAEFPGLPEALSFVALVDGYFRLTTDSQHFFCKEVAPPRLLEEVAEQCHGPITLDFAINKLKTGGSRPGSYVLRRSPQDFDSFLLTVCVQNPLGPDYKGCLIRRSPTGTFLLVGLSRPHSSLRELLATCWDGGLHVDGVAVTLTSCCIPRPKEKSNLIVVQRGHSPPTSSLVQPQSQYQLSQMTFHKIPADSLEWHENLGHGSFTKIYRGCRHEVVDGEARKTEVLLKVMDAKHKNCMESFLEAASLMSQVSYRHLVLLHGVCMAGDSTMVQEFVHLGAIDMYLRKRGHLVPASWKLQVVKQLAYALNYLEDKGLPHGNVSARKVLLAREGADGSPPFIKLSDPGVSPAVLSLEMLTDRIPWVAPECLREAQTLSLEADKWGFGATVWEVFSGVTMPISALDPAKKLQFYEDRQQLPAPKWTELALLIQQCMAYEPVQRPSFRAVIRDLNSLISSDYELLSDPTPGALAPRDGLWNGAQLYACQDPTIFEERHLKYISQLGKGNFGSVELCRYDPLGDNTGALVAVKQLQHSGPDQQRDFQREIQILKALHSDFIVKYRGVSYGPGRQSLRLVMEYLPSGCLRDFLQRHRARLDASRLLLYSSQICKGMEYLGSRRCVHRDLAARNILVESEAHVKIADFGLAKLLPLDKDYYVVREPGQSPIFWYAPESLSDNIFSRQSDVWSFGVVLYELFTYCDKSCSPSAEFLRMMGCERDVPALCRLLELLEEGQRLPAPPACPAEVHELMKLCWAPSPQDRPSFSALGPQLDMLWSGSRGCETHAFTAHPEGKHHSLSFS
How it was run: (§1)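 Eight concentrations per compound (1:3 serial dilution of 20 mM DMSO stock) were tested. Read-out: AlphaScreen signal from phospho-antibody acceptor and streptavidin donor beads bound to biotinylated peptide substrate, reduced on kinase inhibition.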

[2] = molecular target: T2, Flt1 (Homo sapiens, UniProt P17948); test: AlphaScreen kinase assay, Flt1; details: read-out: IC50, activity toward kinase Flt1
T2 construct: P1826.pETN6 BI-PTP FLT1 M799-D1165-X WT; His6 (N); made in house; host or cells: E. coli (PTP1B co-expressed)
T2 sequence (P17948 with tags, fused parts or gaps): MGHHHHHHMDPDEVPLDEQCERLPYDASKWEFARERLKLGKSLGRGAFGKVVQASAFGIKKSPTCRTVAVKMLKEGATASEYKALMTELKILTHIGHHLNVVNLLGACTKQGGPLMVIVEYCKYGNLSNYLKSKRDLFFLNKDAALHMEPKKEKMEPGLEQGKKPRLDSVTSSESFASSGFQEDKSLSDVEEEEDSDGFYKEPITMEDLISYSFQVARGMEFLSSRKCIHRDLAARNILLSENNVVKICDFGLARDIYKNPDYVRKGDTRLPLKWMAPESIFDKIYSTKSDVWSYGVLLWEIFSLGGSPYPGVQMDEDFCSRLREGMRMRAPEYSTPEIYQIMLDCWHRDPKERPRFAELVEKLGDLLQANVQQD

[3] = molecular target: T3, Jnk3 (Homo sapiens, UniProt P53779); test: AlphaScreen kinase assay, Jnk3; details: read-out: IC50, activity toward kinase Jnk3
T3 construct: purchased Upstate Biotechnology
T3 sequence (P53779 whole entry): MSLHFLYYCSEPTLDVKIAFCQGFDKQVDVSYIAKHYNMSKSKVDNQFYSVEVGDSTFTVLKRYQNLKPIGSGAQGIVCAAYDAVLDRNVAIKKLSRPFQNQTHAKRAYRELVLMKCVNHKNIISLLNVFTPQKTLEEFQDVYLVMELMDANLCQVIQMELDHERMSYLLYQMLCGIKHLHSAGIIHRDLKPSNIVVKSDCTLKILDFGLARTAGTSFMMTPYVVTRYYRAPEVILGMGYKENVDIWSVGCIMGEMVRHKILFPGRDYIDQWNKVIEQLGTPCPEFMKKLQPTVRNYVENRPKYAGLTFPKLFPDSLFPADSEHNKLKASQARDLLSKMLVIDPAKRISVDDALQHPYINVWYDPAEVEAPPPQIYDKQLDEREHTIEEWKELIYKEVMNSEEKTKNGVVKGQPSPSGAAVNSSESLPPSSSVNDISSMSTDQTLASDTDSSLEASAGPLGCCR

[4] = molecular target: T4, Jnk1 (Homo sapiens, UniProt P45983); test: AlphaScreen kinase assay, Jnk1; details: read-out: IC50, activity toward kinase Jnk1
T4 construct: purchased Upstate Biotechnology
T4 sequence (P45983 whole entry): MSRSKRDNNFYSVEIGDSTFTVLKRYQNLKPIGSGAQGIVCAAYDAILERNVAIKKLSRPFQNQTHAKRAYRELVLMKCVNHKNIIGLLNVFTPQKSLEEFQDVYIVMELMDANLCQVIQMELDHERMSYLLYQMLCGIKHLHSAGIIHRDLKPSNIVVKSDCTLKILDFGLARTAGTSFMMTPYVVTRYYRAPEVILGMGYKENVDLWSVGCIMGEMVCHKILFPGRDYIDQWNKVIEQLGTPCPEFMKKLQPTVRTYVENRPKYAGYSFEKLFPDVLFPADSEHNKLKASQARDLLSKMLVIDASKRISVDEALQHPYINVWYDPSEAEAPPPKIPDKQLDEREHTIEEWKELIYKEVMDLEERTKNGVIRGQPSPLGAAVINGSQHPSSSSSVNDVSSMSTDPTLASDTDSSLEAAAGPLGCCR

[5] = molecular target: T5, Abl (Homo sapiens, UniProt P00519); test: AlphaScreen kinase assay, Abl; details: read-out: activity toward kinase Abl, IC50
T5 construct: P1121. pET-SPEC BI-PTP Abl G227-V515-X; His6 (N); made in house; host or cells: E. coli (PTP1B co-expressed)
T5 sequence (P00519 with tags, fused parts or gaps): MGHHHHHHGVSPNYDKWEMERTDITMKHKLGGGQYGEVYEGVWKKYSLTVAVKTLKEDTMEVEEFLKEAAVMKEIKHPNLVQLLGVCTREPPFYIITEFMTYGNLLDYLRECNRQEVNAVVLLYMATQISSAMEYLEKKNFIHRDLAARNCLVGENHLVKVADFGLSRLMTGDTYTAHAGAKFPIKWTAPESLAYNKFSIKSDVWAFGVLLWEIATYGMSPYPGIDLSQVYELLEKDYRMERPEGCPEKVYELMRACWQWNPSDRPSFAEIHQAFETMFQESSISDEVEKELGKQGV
How it was run: as §1

[6] = molecular target: T6, Fak (Homo sapiens, UniProt Q05397); test: AlphaScreen kinase assay, Fak; details: read-out: IC50, activity toward kinase Fak
T6 construct: P1358.pFastBacHtb FAK S411-Q686-X; His6 with pFastBacHTb leader (TEV site) (N); made in house; host or cells: Sf9 (baculovirus)
T6 sequence (Q05397 411-686): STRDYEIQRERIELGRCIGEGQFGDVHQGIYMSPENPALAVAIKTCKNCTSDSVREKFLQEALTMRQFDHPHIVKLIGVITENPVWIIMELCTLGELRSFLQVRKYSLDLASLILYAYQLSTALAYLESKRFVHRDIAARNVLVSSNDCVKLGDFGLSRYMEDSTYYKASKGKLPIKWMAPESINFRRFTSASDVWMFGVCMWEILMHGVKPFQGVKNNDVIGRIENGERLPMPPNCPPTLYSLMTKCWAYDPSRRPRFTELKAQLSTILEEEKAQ

Compound | pIC50 [1] | pIC50 [2] | pIC50 [3] | pIC50 [4] | pIC50 [5] | pIC50 [6]
Cc1ccccc1C(=O)c1c[nH]c2nccc(-c3cccc(N)c3)c12 [Compound P-0044] | ≥ 5.00 |  |  |  |  | 
CC(=O)Nc1cccc(-c2ccnc3[nH]cc(C(=O)c4ccccc4F)c23)c1 [Compound P-0070] | ≥ 5.00 |  |  |  |  | 
Nc1cccc(-c2ccnc3[nH]cc(C(=O)c4ccccc4F)c23)c1 [Compound P-0022] | ≥ 5.00 |  |  |  |  | 
Oc1cccc(Cc2c[nH]c3ncc(-c4ccsc4)cc23)c1 [Compound P-0056] |  | ≥ 5.00 | ≥ 5.00 | ≥ 5.00 | ≥ 5.00 | 
NC(=O)c1ccc(-c2ccnc3[nH]cc(C(=O)c4cc(F)ccc4F)c23)cc1 [Compound P-0013] | ≥ 5.00 | ≥ 5.00 |  |  |  | 
O=C(c1cc(O)ccc1F)c1c[nH]c2ncc(-c3ccccc3)cc12 [Compound P-0045] |  |  | ≥ 5.00 | ≥ 5.00 | ≥ 5.00 | ≥ 5.00
Nc1cccc(-c2cnc3[nH]cc(C(=O)c4cc(O)ccc4F)c3c2)c1 [Compound P-0002] |  | ≥ 5.00 | ≥ 5.00 | ≥ 5.00 | ≥ 5.00 | ≥ 5.00
O=C(c1cccc(O)c1)c1c[nH]c2ncc(-c3cccs3)cc12 [Compound P-0196] |  | ≥ 5.00 | ≥ 5.00 | ≥ 5.00 | ≥ 5.00 | ≥ 5.00
O=C(c1ccccc1F)c1c[nH]c2nccc(-c3ccsc3)c12 [Compound P-0051] | ≥ 5.00 |  |  |  |  | 
NC(=O)c1ccc(-c2ccnc3[nH]cc(C(=O)c4ccccc4F)c23)cc1 [Compound P-0014] | ≥ 5.00 |  |  |  |  | 
Cc1ccc(S(=O)(=O)NCc2c[nH]c3ncccc23)cc1 [Compound P-0058] |  |  | ≥ 5.00 |  | ≥ 5.00 | 
Cc1ccccc1C(=O)c1c[nH]c2nccc(-c3cccc(NS(C)(=O)=O)c3)c12 [Compound P-0109] | ≥ 5.00 |  |  |  |  | 
Cc1ccc(F)cc1C(=O)c1c[nH]c2ncc(-c3cccc(N)c3)cc12 [Compound P-0040] |  |  | ≥ 5.00 | ≥ 5.00 | ≥ 5.00 | 
CCCS(=O)(=O)Nc1ccc(F)c(C(=O)c2c[nH]c3ncccc23)c1F [Compound P-0007, Propane-1-sulfonic acid [2,4-difluoro-3-(1H-pyrrolo[2,3-b]pyridine-3-carbonyl)-phenyl]-amide] |  |  |  |  | ≥ 5.00 | ≥ 5.00
CC(=O)Nc1cccc(-c2cnc3[nH]cc(C(=O)c4cc(O)ccc4F)c3c2)c1 [Compound P-0001] |  | ≥ 5.00 | ≥ 5.00 | ≥ 5.00 | ≥ 5.00 | ≥ 5.00
Nc1cccc(-c2ccnc3[nH]cc(C(=O)c4cc(F)ccc4F)c23)c1 [Compound P-0046] | ≥ 5.00 |  |  |  |  | 
Fc1cc(F)cc(-c2ccnc3[nH]cc(Sc4ccccn4)c23)c1 [Compound P-0106] | ≥ 5.00 |  |  |  |  | 
NC(=O)c1cccc(-c2ccnc3[nH]cc(C(=O)c4cc(F)ccc4F)c23)c1 [Compound P-0049] | ≥ 5.00 |  |  |  |  | 

Compound | pIC50 [1] | pIC50 [2] | pIC50 [3] | pIC50 [4] | pIC50 [5] | pIC50 [6]
O=C(O)/C=C/c1cccc(-c2cnc3[nH]cc(C(=O)c4cc(O)ccc4F)c3c2)c1 [Compound P-0010] |  |  | ≥ 5.00 | ≥ 5.00 | ≥ 5.00 | 
CS(=O)(=O)c1cccc(-c2ccnc3[nH]cc(C(=O)c4cc(F)ccc4F)c23)c1 [Compound P-0171] | ≥ 5.00 |  |  |  |  | 
O=C(c1cccc(O)c1)c1c[nH]c2ncc(Nc3ccccc3)cc12 [Compound P-0025] |  |  | ≥ 5.00 | ≥ 5.00 | ≥ 5.00 | ≥ 5.00
O=C(c1cc(O)ccc1F)c1c[nH]c2ncc(-c3cccs3)cc12 [Compound P-0032] |  | ≥ 5.00 | ≥ 5.00 | ≥ 5.00 | ≥ 5.00 | ≥ 5.00
COc1cccc(C(=O)c2c[nH]c3ncc(-c4cccc(NC(C)=O)c4)cc23)c1F [Compound P-1336, N-{3-[3-(2-Fluoro-3-methoxy-benzoyl)-1H-pyrrolo[2,3-b]pyridin-5-yl]-phenyl}-acetamide] |  |  |  | ≥ 5.00 | ≥ 5.00 | ≥ 5.00
COc1ccc(F)c(C(=O)c2c[nH]c3ncc(-c4cccnc4)cc23)c1 [Compound P-0090] |  | ≥ 5.00 | ≥ 5.00 | ≥ 5.00 | ≥ 5.00 | 
Oc1cc(O)cc(Cc2c[nH]c3ncc(-c4ccsc4)cc23)c1 [Compound P-0093] |  |  | ≥ 5.00 |  | ≥ 5.00 | 
O=C(c1cc(F)ccc1F)c1c[nH]c2nccc(-c3cccnc3)c12 [Compound P-0063] | ≥ 5.00 |  |  |  |  | 
Cc1ccc(S(=O)(=O)NCc2c[nH]c3nccc(-c4cccc(C#N)c4)c23)cc1 [Compound P-0072] |  | ≥ 5.00 |  |  | ≥ 5.00 | 
OCCOc1ccc(F)c(Cc2c[nH]c3ncc(-c4cccnc4)cc23)c1F [Compound P-1394, 2-[2,4-Difluoro-3-(5-pyridin-3-yl-1H-pyrrolo[2,3-b]pyridin-3-ylmethyl)-phenoxy]-ethanol] |  |  | ≥ 5.00 | ≥ 5.00 | ≥ 5.00 | ≥ 5.00
Cn1cc(C(F)(F)F)c(-c2ccc(S(=O)(=O)NCc3c[nH]c4ncccc34)s2)n1 [Compound P-0041] |  | ≥ 5.00 | ≥ 5.00 |  | ≥ 5.00 | 
O=C(c1ccccc1F)c1c[nH]c2ncc(-c3ccsc3)cc12 [Compound P-0134] |  | ≥ 5.00 | ≥ 5.00 | ≥ 5.00 | ≥ 5.00 | 
O=C(O)/C=C/c1cccc(-c2cnc3[nH]cc(C(=O)c4ccccc4F)c3c2)c1 [Compound P-0033] |  | ≥ 5.00 | ≥ 5.00 | ≥ 5.00 | ≥ 5.00 | 
Cc1ccc(F)cc1C(=O)c1c[nH]c2nccc(-c3cccc(NS(C)(=O)=O)c3)c12 [Compound P-0124] | ≥ 5.00 |  |  |  |  | 
CCCS(=O)(=O)Nc1ccc(F)c(C(=O)c2c[nH]c3ncc(OC)cc23)c1F [Compound P-0806, Propane-1-sulfonic acid [2,4-difluoro-3-(5-methoxy-1H-pyrrolo[2,3-b]pyridine-3-carbonyl)-phenyl]-amide] |  |  |  |  | ≥ 5.00 | ≥ 5.00
CS(=O)(=O)Nc1cccc(-c2ccnc3[nH]cc(C(=O)c4cc(F)ccc4F)c23)c1 [Compound P-0060] | ≥ 5.00 |  |  |  |  | 
CCCCNC(=O)Nc1ccc(F)c(C(=O)c2c[nH]c3ncc(-c4cccnc4)cc23)c1F [Compound P-1318, 1-Butyl-3-[2,4-difluoro-3-(5-pyridin-3-yl-1H-pyrrolo[2,3-b]pyridine-3-carbonyl)-phenyl]-urea] |  | ≥ 5.00 | ≥ 5.00 | ≥ 5.00 | ≥ 5.00 | ≥ 5.00
